Source: patent publication US5661151A, “Tetrahydrofuran antifungals” (Schering Corporation, priority 1995, dated 1997)
In brackets after ≈: the same amount, converted by molar mass.

Legend:
Cryptococcus neoformans [1] = experiment: In vitro broth dilution MFC, Cryptococcus neoformans; type: cell-based; conditions: 3 strains
Experimental: (§1) The in vitro antifungal activity tests were performed via conventional broth dilution methods in Sabouraud dextrose broth ("SDB") medium and Eagles Minimum Essential Medium ("EMEM") against a large number of fungi. Minimum Inhibitory Concentrations ("MICs") were measured after 24, 48 and 72 hour tests. In many cases, Minimum Fungicidial Concentrations ("MFCS") were measured after 48 and 72 hours.

Dermatophytes [2] = experiment: In vitro broth dilution MIC, dermatophytes; type: cell-based, T. rubrum, T. mentagrophytes, and T. tonsurans; conditions: 6 strains
Dermatophytes [3] = experiment: In vitro broth dilution MFC, dermatophytes; type: cell-based, T. rubrum, T. mentagrophytes, and T. tonsurans; conditions: 6 strains
Experimental: as §1

Candida krusei [4] = experiment: In vitro broth dilution MFC, Candida krusei; type: cell-based; conditions: 16 strains
Experimental: as §1

Cryptococcus neoformans [5] = experiment: In vitro broth dilution MIC, Cryptococcus neoformans; type: cell-based; conditions: 3 strains
Experimental: as §1

Candida albicans [6] = conditions: 26 strains
Experimental: as §1

[7] = system: Candida tropicalis & stellatoidea; experiment: In vitro broth dilution MIC, Candida tropicalis & stellatoidea; type: cell-based; conditions: 5 strains
Experimental: as §1

Candida glabrata [8] = experiment: In vitro broth dilution MFC, Candida glabrata; type: cell-based; conditions: 9 strains
Experimental: as §1

[9] = system: Candida tropicalis & stellatoidea; conditions: 5 strains
Experimental: as §1

Aspergillus [10] = experiment: In vitro broth dilution MIC, Aspergillus; type: cell-based, Aspergillus flavus, fumigatus and other species; conditions: for MIC90: read-out: MIC 90 (Minimum Inhibitory Concentrations for 90% of the strains)
Experimental: as §1

Candida albicans [11] = experiment: In vitro broth dilution MIC, Candida albicans; type: cell-based; conditions: 26 strains; for MIC90: read-out: MIC 90 (Minimum Inhibitory Concentrations for 90% of the strains)
Experimental: as §1

Candida krusei [12] = experiment: In vitro broth dilution MIC, Candida krusei; type: cell-based; conditions: 16 strains
Candida glabrata [13] = experiment: In vitro broth dilution MIC, Candida glabrata; type: cell-based; conditions: 9 strains; for MIC90: Nakaseomyces glabratus, read-out: MIC 90 (Minimum Inhibitory Concentrations for 90% of the strains)
Experimental: as §1

Aspergillus [14] = experiment: In vitro broth dilution MFC, Aspergillus; type: cell-based, Aspergillus flavus, fumigatus and other species; conditions: 37 strains
Experimental: as §1

[15] = system: cytochrome P-450 liver drug metabolizing enzymes; experiment: Induction of cytochrome P-450 liver drug metabolizing enzymes in an in vivo rat model; conditions: after oral administration
[16] = Serum levels, serum half lives and tissue distribution following oral dosing; type: in vivo, mice, rats, dogs and monkeys

Row | SMILES | Percentage of strains with MFCs ≤1 mcg/ml (Dermatophytes [3]) | Percentage of strains with MFCs ≤1 mcg/ml (Candida krusei [4]) | MIC90 (Aspergillus [10]; Aspergillus, 37 strains) | MIC90 (Candida albicans [11]) | MIC90 (Candida glabrata [13]) | Percentage of strains with MFCs ≤1 mcg/ml (Aspergillus [14]) | MIC 90 (Minimum Inhibitory Concentrations for 90% of the strains) (Cryptococcus neoformans [5]) | other results
1 | OC(Cn1cncn1)(Cn1cncn1)c1ccc(F)cc1F [FLZ, fluconazole] | 0 PERCENTAGE | 0 PERCENTAGE | 29.9 µg/mL (≈ 97.6 µM) | 0.887 µg/mL (≈ 2.9 µM) | 29.3 µg/mL (≈ 95.7 µM) | 0 PERCENTAGE |  | Percentage of strains with MFCs ≤1 mcg/ml (Cryptococcus neoformans [1]): 0 PERCENTAGE; Percentage of strains with MICs ≤1 mcg/ml (Dermatophytes [2]): 100 PERCENTAGE; Percentage of strains with MICs ≤1 mcg/ml (Cryptococcus neoformans [5]): 0 PERCENTAGE; MIC90 (Cryptococcus neoformans [5]; read-out: MIC 90 (Minimum Inhibitory Concentrations for 90% of the strains)): 25.9 µg/mL (≈ 84.6 µM); Percentage of strains with MFCs ≤1 mcg/ml (Candida albicans [6]): 100 PERCENTAGE; Percentage of strains with MICs ≤1 mcg/ml [7]: 100 PERCENTAGE; MIC90 ([7]; Candida tropicalis, read-out: MIC 90 (Minimum Inhibitory Concentrations for 90% of the strains)): 0.917 µg/mL (≈ 2.99 µM); Percentage of strains with MFCs ≤1 mcg/ml (Candida glabrata [8]): 0 PERCENTAGE; Percentage of strains with MFCs ≤1 mcg/ml [9]: 100 PERCENTAGE; Percentage of strains with MICs ≤1 mcg/ml (Aspergillus [10]; Aspergillus, 37 strains): 0 PERCENTAGE; MIC (Aspergillus [10]; SDB, 37 species of Aspergillus, read-out: geometric mean MICs): ≥ 32 µg/mL; Percentage of strains with MICs ≤1 mcg/ml (Candida albicans [11]): 100 PERCENTAGE; Percentage of strains with MICs ≤1 mcg/ml (Candida krusei [12]): 0 PERCENTAGE; MIC90 (Candida krusei [12]; Pichia kudriavzevii, read-out: MIC 90 (Minimum Inhibitory Concentrations for 90% of the strains)): 29.9 µg/mL (≈ 97.6 µM); Percentage of strains with MICs ≤1 mcg/ml (Candida glabrata [13]): 0 PERCENTAGE
2 | CCC(C(C)O)n1ncn(-c2ccc(N3CCN(c4ccc(OCC5COC(Cn6cncn6)(c6ccc(F)cc6F)C5)cc4)CC3)cc2)c1=O (centres unmarked) [drawing 21] |  |  |  |  |  |  |  | induction of various cytochrome P-450 liver drug metabolizing enzymes [15]: not inducers; serum half lives ([16]; following O.D. dosing): very long serum half lives; serum levels compared to azoles of similar structure ([16]; mice, rats, dogs and monkeys, oral dosing with a methyl cellulose formulation): consistently higher serum levels
3 | CCC(C(C)O)n1ncn(-c2ccc(N3CCN(c4ccc(OCC5COC(Cn6cncn6)(c6ccc(F)cc6F)C5)cc4)CC3)cc2)c1=O (centres unmarked) [drawing 24] | 100 PERCENTAGE | 100 PERCENTAGE |  |  |  | 89 PERCENTAGE |  | 
4 | CC[C@H]([C@H](C)O)n1ncn(-c2ccc(N3CCN(c4ccc(OC[C@@H]5CO[C@@](Cn6cncn6)(c6ccc(F)cc6F)C5)cc4)CC3)cc2)c1=O | 67 PERCENTAGE | 88 PERCENTAGE | 0.122 µg/mL (≈ 0.174 µM) | 0.274 µg/mL (≈ 0.391 µM) | 28.8 µg/mL (≈ 41.1 µM) | 50 PERCENTAGE | .05 MCG/ML | 
5 | CCC(C(C)O)n1ncn(-c2ccc(N3CCN(c4ccc(OCC5COC(Cn6cncn6)(c6ccc(F)cc6F)C5)cc4)CC3)cc2)c1=O (centres unmarked) [drawing 23] | 83 PERCENTAGE | 94 PERCENTAGE |  |  |  | 62 PERCENTAGE | .007 MCG/ML | 
